The source of these data is US20240246920A1, “TRIAZOLE DERIVATIVES WITH ANTIFUNGAL ACTIVITY” (King's College London, priority 2020, published 2024).

For test [1], the system named is C. krusei NCPF3876. As to the kind of experiment: microbe, parasite or virus in culture. It is filed as cell-based, Candida krusei. As to conditions: Pichia kudriavzevii. In a few lines:
(§1)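 MIC taken as lowest concentration inhibiting growth ≥50% relative to drug-free control, from OD530 after 24 hours at 37° C. Fungi at 0.5-5×10^5/mL were exposed to serially diluted compound in RPMI 1640/MOPS/2% glucose medium adjusted to pH 7.0.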

For test [2], the system named is Candida auris TDG1102. As to the kind of experiment: Candida panel MIC, serial dilution in 96-well plates. The class given is cell-based. As to conditions: Candidozyma auris, TDG1102; Table 4, extended panel; 24 hours, ≥50% inhibition; read-out: MIC Candida auris TDG1102. The method, boiled down:
(§2)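 RPMI/MOPS/2% glucose pH 7.0; 2-fold series 128→0.25 μg/mL; inoculum 0.5-5×10^5/mL; 37 °C, 24 h; OD530 read; MIC at ≥50% growth inhibition vs drug-free control.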

Test [3] deals with Candida auris TDG2512. The test is described as above. It is filed as cell-based. As to conditions: Candidozyma auris, TDG2512; Table 4, extended panel; 24 hours, ≥50% inhibition; read-out: MIC Candida auris TDG2512. The method, boiled down: as §2
Test [4] relates to C. auris TDG1912. The test is described as above. As to conditions: Candidozyma auris, TDG1912; Table 4; 24 hours, ≥50% inhibition; read-out: MIC C. auris TDG1912. The class given is cell-based. The method, boiled down:
as §2

In test [5] the test system is C. tropicalis NCPF8760. The test is described as above. The class given is cell-based. The method, boiled down: as §2
For test [6], the system named is panel of Candida species. The test is described as follows: Candida panel MIC, statements on the whole panel. The settings on record: in words. It is filed as cell-based. The protocol:
The minimum inhibitory concentration of test compounds were determined in a panel of Candida species (see Table 4 below), using the a serial dilution method in 96-well plates using the following protocol.
Starter cultures of fungal strains to be tested were grown in 3 mL of RPMI 2% glucose media incubated at 37° C. with shaking at 200 rpm overnight. The culture media used was 900 mL H2O; 10.4 g RPMI 1640 (with L-glutamine and a pH indicator but without bicarbonate); 34.5 g MOPS and 18 g glucose. The pH of the media was adjusted to 7.0 with 1 M sodium hydroxide.
Solutions of the compound to be tested were prepared by dissolving the compound in DMSO and subsequently into media to the desired concentrations. 200 μL of compound solution was then added to the wells of the 96-well plate using a serial dilution method row-by row of the plate to give a compound concentration gradient across the plate of from 128 μg/mL to 0.25 μg/mL. The last two rows of each plate were control rows containing the culture media alone and the media plus fungi.
The fungi starter cultures were diluted 1:10 in water in cuvettes. This was then further diluted to an optical density (OD600) of 0.01 in media. 100 μL of the fungi was added to each well giving a starting concentration of fungus of 0.5-5×10^5/mL. One species of fungus was used on each plate. The plates were then held at 37° C. for 24 hours.
A plate reader was used to measure growth in each well at OD530 nm and the MIC was determined for each test compound. The MIC is defined as the lowest concentration giving rise to inhibition of ≥50% of that of the drug-free control well containing the fungus and media.

Test [7] deals with Candida auris TDG2211. The test is described as follows: microbe, parasite or virus in culture. The class given is cell-based. The settings on record: Candidozyma auris, TDG2211; Table 4, extended panel; 24 hours, ≥50% inhibition; read-out: MIC Candida auris TDG2211. In a few lines:
(§3)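 Growth inhibition was scored by OD530 nm after a 24 h, 37° C incubation of C. auris (0.5-5×10^5/mL) with compound dilutions in buffered RPMI glucose medium.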

Test [8] has as its system Candida auris TDG2506. As to the kind of experiment: microbe, parasite or virus in culture. The class given is cell-based. The settings on record: Candidozyma auris, TDG2506; Table 4, extended panel; 24 hours, ≥50% inhibition; read-out: MIC Candida auris TDG2506. In a few lines: as §3
For test [9], the system named is C. parapsilosis NCPF3209. The test is described as follows: microbe, parasite or virus in culture. The class given is cell-based, Candida parapsilosis. The settings on record: Lodderomyces parapsilosis. The method, boiled down:
as §1

Test [10] concerns C. albicans NCPF3281. The test is described as follows: Candida panel MIC, serial dilution in 96-well plates. As to conditions: Candida albicans, NCPF3281; Table 4, common panel; 24 hours, ≥50% inhibition; read-out: MIC C. albicans NCPF3281. The class given is cell-based, Candida albicans. The method, boiled down:
as §2

For test [11], the system named is C. auris 8971. Described as above. It is filed as cell-based, Candida auris. As to conditions: Candidozyma auris, 8971; Table 4, extended panel; 24 hours, ≥50% inhibition; read-out: MIC C. auris 8971. In a few lines: as §3
Test [12] concerns C. auris 8984. The test is described as above. It is filed as cell-based, Candida auris. The settings on record: Candidozyma auris, 8984; Table 4, extended panel; 24 hours, ≥50% inhibition; read-out: MIC C. auris 8984. The method, boiled down: as §3
Test [13] concerns C. auris 8977. The description is as above. The class given is cell-based, Candida auris. The settings on record: Candidozyma auris, 8977; Table 4, extended panel; 24 hours, ≥50% inhibition; read-out: MIC C. auris 8977. The method, boiled down: as §3
Test [14] deals with C. glabrata NCPF8018. The test is described as above. The class given is cell-based, Candida glabrata. The settings on record: Nakaseomyces glabratus. In a few lines:
as §1

[15] abbreviates: NCPF3876, Table 4, common panel, 24 hours, ≥50% inhibition, read-out: MIC C. krusei NCPF3876.
Setting [16] is: NCPF8760, Table 4, common panel, 24 hours, ≥50% inhibition, read-out: MIC C. tropicalis NCPF8760.
[17] abbreviates: NCPF3209, Table 4, common panel, 24 hours, ≥50% inhibition, read-out: MIC C. parapsilosis NCPF3209.
Setting [18] is: NCPF8018, Table 4, common panel, 24 hours, ≥50% inhibition, read-out: MIC C. glabrata NCPF8018.

Molecules are shown by their SMILES. Converted amounts (≈) assume the structure as drawn. Read-outs that look alike come from different tables or passages of the source.

Take `Cc1ccc(-c2ccc(NC3CCN(CC(O)(Cn4cncn4)c4ccc(F)cc4F)CC3)cc2)cc1` (stereo not drawn) [Example 3, 2-(2,4-Difluorophenyl)-1-(4-((4′-methyl-[1,1′-biphenyl]-4-yl)amino)piperidin-1-yl)-3-(1H-1,2,4-triazol-1-yl)propan-2-ol]: the MIC is 4 to 16 ng/mL (≈ 0.00794 to 0.0318 µM) in [1] (NCPF3876, read-out: MIC C. Krusei NCPF3876); 4 to 16 ng/mL (≈ 0.00794 to 0.0318 µM) in [1] (setting [15]); not above 3 ng/mL in test [2]; not above 3 ng/mL in [3]; 8 to 60 ng/mL (≈ 0.0159 to 0.119 µM) in [4]; 15 ng/mL (≈ 0.0298 µM) in test [5] (setting [16]). The MIC in test [5] (NCPF8760, read-out: MIC C. Tropicalis NCPF8760) is 15 ng/mL (≈ 0.0298 µM); in test [7], 6 ng/mL (≈ 0.0119 µM); in [8] it was 6 ng/mL (≈ 0.0119 µM); in [9] (NCPF3209, read-out: MIC C. Parapsilosis NCPF3209), 4 ng/mL (≈ 0.00794 µM); in test [9] (setting [17]), 4 ng/mL (≈ 0.00794 µM); in test [10], not above 0.98 ng/mL. Moreover, the MIC in test [11] came out at 6 ng/mL (≈ 0.0119 µM); in [12], 6 ng/mL (≈ 0.0119 µM); in [13], 6 ng/mL (≈ 0.0119 µM); in [14] (NCPF8018, read-out: MIC C. Glabrata NCPF8018), 125 ng/mL (≈ 0.248 µM); in test [14] (setting [18]) it was 125 ng/mL (≈ 0.248 µM). Also, the “Activity against Candida auris including resistant strains” value (“Activity” for short) in test [6] is reported as “highly active”.

Take `COc1ccc(-c2ccc(NC3CCN(CC(O)(Cn4cncn4)c4ccc(F)cc4F)CC3)cc2)cc1` (stereo not drawn) [Example 4, 2-(2,4-difluorophenyl)-1-(4-((4′-methoxy-[1,1′-biphenyl]-4-yl)amino)piperidin-1-yl)-3-(1H-1,2,4-triazol-1-yl)propan-2-ol]: the MIC was 4 to 125 ng/mL (≈ 0.0077 to 0.241 µM) in test [1] (setting [15]); 6 ng/mL (≈ 0.0115 µM) in test [2]; not above 3 ng/mL in test [3]; 60 ng/mL (≈ 0.115 µM) in test [4]; 250 ng/mL (≈ 0.481 µM) in [5] (setting [16]); 6 ng/mL (≈ 0.0115 µM) in test [7]. For the same molecule, the MIC in test [8] is not above 3 ng/mL; in test [9] (setting [17]), 4 ng/mL (≈ 0.0077 µM); in test [10], 8 ng/mL (≈ 0.0154 µM). Moreover, the “Activity” value in test [6] was “highly active”.

As for `N#Cc1ccccc1-c1ccc(NC2CCN(CC(O)(Cn3cncn3)c3ccc(F)cc3F)CC2)cc1` (stereo not drawn) [Example 5, 4′-((1-(2-(2,4-difluorophenyl)-2-hydroxy-3-(1H-1,2,4-triazol-1-yl)propyl)piperidin-4-yl)amino)-[1,1′-biphenyl]-2-carbonitrile], the MIC in test [1] (setting [15]) is 2 to 125 ng/mL (≈ 0.00389 to 0.243 µM); in test [2], not above 3 ng/mL; in [3], not above 3 ng/mL; in test [4], 30 ng/mL (≈ 0.0583 µM); in test [5] (setting [16]), 8 to 250 ng/mL (≈ 0.0155 to 0.486 µM); in test [7], 6 ng/mL (≈ 0.0117 µM). Also, the MIC is 6 ng/mL (≈ 0.0117 µM) in test [8], 4 ng/mL (≈ 0.00777 µM) in test [9] (setting [17]), 2 to 4 ng/mL (≈ 0.00389 to 0.00777 µM) in test [10] and 125 ng/mL (≈ 0.243 µM) in test [14] (setting [18]). The “Activity” value in test [6] is given as “highly active”.
